From patent US9284283B2, “Macrocyclic compounds for modulating IL-17” (ENSEMBLE THERAPEUTICS CORPORATION, priority 2012, dated 2016)

Columns and labels:
[1] = tested on: IL-17-induced GROα secretion from HT-29 cells; assay: HT-29 cellular assay (IL-17-induced GROα secretion); format: cell-based; conditions: Homo sapiens
Protocol: To test the ability of a compound of the invention to neutralize or antagonize IL-17 bioactivity, the following cell-based assay was used. IL-17 can stimulate epithelial cells and other cells to secrete GROα. The ability of a compound of the invention to neutralize IL-17-induced GROα secretion from the human colorectal adenocarcinoma epithelial cell line HT-29 is tested in this assay.
HT-29 cells (human colorectal adenocarcinoma epithelial cells, ATCC #HTB-38), were maintained in culture/assay medium in tissue culture-treated flasks using standard techniques. HT-29 cells were grown in tissue culture flasks until they were 50-80% confluent on the day before the assay. The day before the assay, the cells were detached from the culture flasks with trypsin+EDTA. The trypsin was inactivated with complete assay medium. HT-29 cells were then centrifuged at 500×g for 5 minutes at room temperature. The cell pellet was then re-suspended in Defined Keratinocyte SFM (Invitrogen #10766019)+10% FCS and 50,000 HT-29 cells (in 100 μl) were added to each treatment well of the 96-well plates. The 96-well plates were placed in a tissue culture incubator (37° C., 5% CO2) overnight. The next day, the media was removed from the cells and the cells were washed twice with Defined Keratinocyte SFM. In a separate 96-well plate, compounds to be tested were serially diluted in Defined Keratinocyte SFM and run in triplicate in 100 μL total volume. To these compound samples were then added 100 μL of human IL-17 at a concentration of 20 ng/mL in Defined Keratinocyte SFM for serum-free assays. 150 μL of the compound/IL-17 mixture was then added to the cells from which the media has previously been removed. The cells were grown for 48 hours in Defined Keratinocyte SFM in a tissue culture incubator (37° C., 5% CO2).
At the end of the incubation, the plates are centrifuged (500×g for 5 minutes at room temperature), and the cell culture media is transferred to polypropylene 96-well plates. The supernatant was used neat in the ELISA. GROα levels are measured with a GROα sandwich ELISA (R+D Systems DuoSet #DY275E), as per the manufacturer's instructions. The ELISA plates were previously coated with mAb 275 (R+D Systems) at 4 μg/mL. GROα is detected using biotinylated goat anti-human GROα (R+D Systems BAF275) at 200 ng/mL using TMB as a substrate. At the end of the ELISA reactions, plates are read at 450 nm on a microplate reader and compared to a standard calibration curve.

IL17A = molecular target: T1, IL17A (Homo sapiens, UniProt Q16552); assay: Surface Plasmon Resonance (SPR) analysis of compound interactions with IL17A; conditions: SPR binding to IL17A
T1 sequence (Q16552 24-155): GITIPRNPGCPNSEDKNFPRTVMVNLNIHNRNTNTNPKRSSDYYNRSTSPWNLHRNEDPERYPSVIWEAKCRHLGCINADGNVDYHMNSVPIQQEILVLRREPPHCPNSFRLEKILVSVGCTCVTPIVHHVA
How it was run: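 His-tagged IL17A captured on a Ni-NTA chip; five 2- or 3-fold compound dilutions from 50 μM injected for 180 s, 120 s dissociation, in HEPES-saline buffer with 0.5% DMSO. Baseline-subtracted sensorgrams fitted 1:1 for ka, kd and KD; Kd also derived from binding extent per concentration.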

[2] = molecular target: T2, recombinant human IL17a (binding to its receptor IL17R) (Homo sapiens, UniProt Q16552); assay: IL-17 competition ELISA I (IL17a coated, IL17R/Fc binding)
T2 construct: purchased R&D Systems 317-ILB (IL17a); 177-IR (IL17R/Fc)
T2 sequence (Q16552 20-155 limits assumed): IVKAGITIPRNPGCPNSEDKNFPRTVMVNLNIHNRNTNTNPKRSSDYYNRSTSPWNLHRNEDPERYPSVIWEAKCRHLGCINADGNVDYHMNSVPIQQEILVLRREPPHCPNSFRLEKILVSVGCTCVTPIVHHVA
How it was run: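 Plates coated with 20 nM recombinant human IL17a received compound dilutions and 12 nM IL17R/Fc (final) for 30 min at room temperature. Bound receptor was detected with HRP anti-human Fc and TMB, read at 450 nm. IC50 came from a 4-parameter logistic fit between no-competitor and blank controls.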

Compound	IC50 [1] [nM]	Kd (IL17A) [nM]	IC50 [2] [nM]
COC(=O)[C@@H]1CCCCNC(=O)CCCNC(=O)[C@@H](Cc2ccc(NC(=O)[C@H](Cc3ccccc3Cl)NC(=O)Cc3ccccc3)cc2)NC(=O)CC2(CCCC2)CC(=O)N1 [Compound 112]	1000 to 10000	< 100	
COC(=O)[C@@H]1CCCCNC(=O)CCCNC(=O)[C@@H](Cc2ccc(NC(=O)[C@H](Cc3ccccc3Cl)NC(=O)c3ccccc3)cc2)NC(=O)CC2(CCCC2)CC(=O)N1 [Compound 113]	> 10000	100 to 1000	
COC(=O)[C@H]1CCCCNC(=O)CNC(=O)[C@@H](Cc2ccc(NC(=O)[C@H](Cc3ccccc3Cl)NC(=O)Cc3ccccc3)cc2)NC(=O)CC2(CCCC2)CC(=O)N1 [Compound 141]	1000 to 10000	< 100	
COC(=O)[C@H]1CCCCNC(=O)CNC(=O)[C@@H](Cc2ccc(NC(=O)[C@H](Cc3ccccc3Cl)NC(=O)c3ccccc3)cc2)NC(=O)CC2(CCCC2)CC(=O)N1 [Compound 142]	1000 to 10000	< 100	
O=C1CNC(=O)[C@@H](Cc2ccc(NC(=O)[C@H](Cc3ccccc3F)NC(=O)Cc3ccccc3)cc2)NC(=O)CC2(CCCC2)CC(=O)N[C@H](C(=O)O)CCCCN1 [Compound 177]	1000 to 10000	< 100	
O=C1CNC(=O)[C@@H](Cc2ccc(NC(=O)[C@H](Cc3ccccc3Cl)NC(=O)Cc3ccccc3)cc2)NC(=O)CC2(CCCC2)CC(=O)N[C@@H](C(=O)O)CCCCN1 [Compound 180]	< 1000	< 100	< 100
O=C1CNC(=O)[C@@H](Cc2ccc(NC(=O)[C@H](Cc3c(F)cccc3F)NC(=O)Cc3ccccc3)cc2)NC(=O)CC2(CCCC2)CC(=O)NCCCCCN1 [Compound 184]	1000 to 10000	< 100	
O=C1CNC(=O)[C@@H](Cc2ccc(NC(=O)[C@H](Cc3ccccc3Br)NC(=O)Cc3ccccc3)cc2)NC(=O)CC2(CCCC2)CC(=O)NCCCCCN1 [Compound 187]	1000 to 10000	< 100	< 100
